Measurements published in patent US11141421B2, “Antitumor agent for biliary tract cancer and method for treating biliary tract cancer” (FUJIFILM Corporation, priority 2018, dated 2021).

What was measured:
bile duct cancer = assay: Administration of Compound A via intravenous injection to bile duct cancer patients; therapeutic effects judged by MRI image diagnosis; format: in vivo, human; design: key to Therapeutic effects of the present invention: CR (Complete Response): A state in which the tumor completely disappeared.; PR (Partial Response): A state in which a sum of the sizes of the tumors was reduced by 30% or more.; SD (Stable Disease): A state in which the size of the tumor did not change.; PD (Progressive Disease): A state in which a sum of the sizes of the tumors was increased by 20% or more and also, the size was increased by 5 mm or more even at an absolute value, or a new lesion appeared
Procedure: This liquid pharmaceutical preparation was used in the subsequent therapy. Besides, the therapy was carried out at the University of Texas MD Anderson Cancer Center (hereinafter referred to as MDACC), and at Sarah Cannon Research Institute (hereinafter referred to as SCRI) in Denver, State of Colorado, U.S.A.
(§1) A medication cycle consisting of administration of Compound A via intravenous injection once a week from the 1st week to the 3rd week and cessation of medication in the 4th week was repeated to bile duct cancer patients Specifically, 28 days was set at one cycle, and on the 1st day, 8th day and 15th day, Compound A was administered to the patients. This cycle consisting of 28 days was repeated. A single dose of compound A was set from 40 mg/m^2 to 135 mg/m^2.
The therapeutic effects were judged according to the following criteria.
Evaluation targets were confirmed by performing image diagnosis using MRI (magnetic resonance imaging), and were then judged according to the following criteria:
CR (Complete Response): A state in which the tumor completely disappeared.
PR (Partial Response): A state in which a sum of the sizes of the tumors was reduced by 30% or more.
PD (Progressive Disease): A state in which a sum of the sizes of the tumors was increased by 20% or more and also, the size was increased by 5 mm or more even at an absolute value, or a new lesion appeared.

[1] = Side effects / drug associated AE in the clinical trial of Compound A; format: in vivo, human
Procedure: as §1
Bile duct cancer patient 6 is intrahepatic cholangiocarcinoma. […] Further, due to neutropenia, the dose was changed to 67.5 mg/m^2. Thereafter, SD could be maintained for 34 weeks or more.

tumor = conditions: orally administered to mice; cited from earlier work

Nc1ccn([C@@H]2S[C@H](CO)[C@@H](O)[C@@H]2F)c(=O)n1 [Compound A, 1-(2-deoxy-2-fluoro-4-thio-β-D-arabinofuranosyl)cytosine]
Therapeutic effects of the present invention (bile duct cancer; bile duct cancer patient 1 (intrahepatic bile duct cancer), single dose 40 mg/m^2 iv, days 1, 8, 15 of 28-day cycle): PR (PR (Partial Response): A state in which a sum of the sizes of the tumors was reduced by 30% or more.)
Therapeutic effect after dose increase (bile duct cancer; bile duct cancer patient 1, single dose increased to 60 mg/m^2 or 90 mg/m^2): PR (PR (Partial Response): A state in which a sum of the sizes of the tumors was reduced by 30% or more.)
Therapeutic effects of the present invention (bile duct cancer; bile duct cancer patient 2 (intrahepatic bile duct cancer), single dose 60 mg/m^2 iv): PR (PR (Partial Response): A state in which a sum of the sizes of the tumors was reduced by 30% or more.)
Therapeutic effects of the present invention (bile duct cancer; bile duct cancer patient 3 (bile duct cholangiocarcinoma), initial dose 60 mg/m^2, changed to 90 mg/m^2): SD
time for which SD could be maintained (bile duct cancer; bile duct cancer patient 3, initial dose 60 mg/m^2, changed to 90 mg/m^2): ≥ 32 weeks
Therapeutic effects of the present invention (bile duct cancer; bile duct cancer patient 4, single dose 90 mg/m^2 iv): PD (PD (Progressive Disease): A state in which a sum of the sizes of the tumors was increased by 20% or more and also, the size was increased by 5 mm or more even at an absolute value, or a new lesion appeared.)
Therapeutic effects of the present invention (bile duct cancer; bile duct cancer patient 5, single dose 90 mg/m^2 iv): SD
Therapeutic effects of the present invention (bile duct cancer; bile duct cancer patient 6 (intrahepatic cholangiocarcinoma), single dose 90 mg/m^2 in Table 1 (text: 135, then 90, then 67.5 mg/m^2)): SD
time for which SD could be maintained (bile duct cancer; bile duct cancer patient 6, after dose changes 135 to 90 to 67.5 mg/m^2): ≥ 34 weeks
side effect leading to further dose change ([1]; bile duct cancer patient 6, dose 90 mg/m^2 (then changed to 67.5 mg/m^2)): neutropenia
side effects observed ([1]; bile duct cancer patient 6, initial dose 135 mg/m^2): hypotension and suspected bacteremia
most common drug associated AE among two or more patients ([1]; clinical trial, patients including bile duct cancer patients, 40 to 135 mg/m^2 iv): fever, nausea, chills, itch, irritating, dry skin, skin separation, and fatigue
antitumor activity (tumor): strong antitumor activity
